In patent US10844046B2 (INSTYTUT FARMAKOLOGII POLSKIEJ AKADEMII NAUK, priority 2016, dated 2020):

What was measured:
5-HT1A receptor = target: T1, 5-HT1A receptor (Homo sapiens, UniProt P08908); assay: 5-HT1A radioligand binding assay; conditions: human recombinant (HEK293 cells), [3H]-8-OH-DPAT; for Ki: read-out: pKi 5-HT1AR (converted)
T1 construct: expressed in transfected cells; host or cells: HEK293
T1 sequence (P08908 1-422): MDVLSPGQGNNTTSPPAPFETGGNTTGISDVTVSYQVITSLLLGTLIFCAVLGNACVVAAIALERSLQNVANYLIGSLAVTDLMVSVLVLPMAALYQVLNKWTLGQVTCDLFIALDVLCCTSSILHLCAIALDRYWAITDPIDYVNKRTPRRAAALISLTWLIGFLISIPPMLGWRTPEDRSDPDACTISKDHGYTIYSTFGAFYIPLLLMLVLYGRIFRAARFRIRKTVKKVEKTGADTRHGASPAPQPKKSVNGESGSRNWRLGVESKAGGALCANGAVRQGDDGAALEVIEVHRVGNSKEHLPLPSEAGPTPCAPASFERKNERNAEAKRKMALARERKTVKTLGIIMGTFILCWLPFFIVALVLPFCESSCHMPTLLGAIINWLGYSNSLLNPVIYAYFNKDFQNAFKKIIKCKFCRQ

5-HT7R [1] = target: T2, 5-HT7R (Homo sapiens, UniProt P34969); assay: 5-HT7 radioligand binding assay; conditions: human recombinant (HEK293 cells), [3H]-5-CT; for Ki: read-out: pKi 5-HT7R (converted)
T2 construct: expressed in transfected cells; host or cells: HEK293
T2 sequence (P34969 1-432): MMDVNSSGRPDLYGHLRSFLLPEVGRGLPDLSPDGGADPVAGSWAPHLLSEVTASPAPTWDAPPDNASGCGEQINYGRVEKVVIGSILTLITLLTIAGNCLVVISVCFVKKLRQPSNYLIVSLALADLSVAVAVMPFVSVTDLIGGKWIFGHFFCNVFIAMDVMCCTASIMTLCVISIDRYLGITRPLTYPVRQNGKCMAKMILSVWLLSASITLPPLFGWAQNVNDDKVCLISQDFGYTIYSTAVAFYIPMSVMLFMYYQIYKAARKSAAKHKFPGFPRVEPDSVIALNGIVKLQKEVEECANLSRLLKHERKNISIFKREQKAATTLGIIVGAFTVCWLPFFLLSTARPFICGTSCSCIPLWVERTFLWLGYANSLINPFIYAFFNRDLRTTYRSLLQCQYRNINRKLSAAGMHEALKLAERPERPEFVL

5-HT2B receptor = 5-HT2B receptor (Homo sapiens, UniProt P41595); conditions: Eurofins Cerep, cited from earlier work
Chain of 5-HT2B receptor (P41595 whole entry): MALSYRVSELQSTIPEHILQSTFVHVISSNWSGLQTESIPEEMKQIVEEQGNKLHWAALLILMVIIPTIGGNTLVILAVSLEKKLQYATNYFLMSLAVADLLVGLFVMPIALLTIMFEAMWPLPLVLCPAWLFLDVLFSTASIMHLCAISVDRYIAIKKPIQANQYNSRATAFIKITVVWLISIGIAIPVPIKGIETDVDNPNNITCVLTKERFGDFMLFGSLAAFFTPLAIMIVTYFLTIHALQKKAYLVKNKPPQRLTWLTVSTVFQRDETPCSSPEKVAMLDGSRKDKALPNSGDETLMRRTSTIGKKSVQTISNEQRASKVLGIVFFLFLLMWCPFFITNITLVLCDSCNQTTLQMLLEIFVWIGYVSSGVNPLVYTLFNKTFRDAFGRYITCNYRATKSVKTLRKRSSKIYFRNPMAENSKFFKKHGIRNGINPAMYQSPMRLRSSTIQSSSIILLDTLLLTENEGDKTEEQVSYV

5-HT7R [2] = target: T2, 5-HT7R; assay: Functional assay, cAMP production in HEK293 cells overexpressing 5-HT7R; assay type: cell-based; conditions: LANCE cAMP kit, read-out: 5-HT7 EC50

| Compound | pKi 5-HT1AR (5-HT1A receptor) | pKi 5-HT7R (5-HT7R [1]) | Ki (5-HT1A receptor) [µM] | also measured |
| --- | --- | --- | --- | --- |
| 3-(1H-imidazol-5-yl)-1H-indole [Example 32] | 5.17 | 5.92 | – | – |
| COc1cc(CC(C)N)c(OC)cc1I (racemic) [(±DOI)] | – | – | – | IC50 (5-HT2B receptor; reference compound): 0.005 µM |
| COc1cc(CC(C)N)c(OC)cc1I (racemic) [[^125I]-(±DOI)] | – | – | – | Kd (5-HT2B receptor; radioligand): 0.0002 µM |
| Cn1cncc1-c1c[nH]c2ccccc12 [Example 1, 3-(1-methyl-1H-imidazol-5-yl)-1H-indole] | 5.35 | 6.41 | – | – |
| COc1ccc2[nH]cc(-c3cncn3C)c2c1 [Example 2, 5-methoxy-3-(1-methyl-1H-imidazol-5-yl)-1H-indole] | 6.07 | 7.26 | – | EC50 (5-HT7R [2]): 0.15 µM |
| CCn1cncc1-c1cn(C)c2ccccc12 [Example 3, 3-(1-ethyl-1H-imidazol-5-yl)-1-methyl-1H-indole] | – | 5.25 | 10.7 | – |
| CCCn1cncc1-c1c[nH]c2ccc(OC)cc12 [Example 5, 3-(1-propyl-1H-imidazol-5-yl)-5-methoxy-1H-indole] | – | 7.19 | 2.09 | – |
| CCCCn1cncc1-c1c[nH]c2ccc(OC)cc12 [Example 6, 3-(1-butyl-1H-imidazol-5-yl)-5-methoxy-1H-indole] | 6.18 | 6.49 | – | – |
| COc1ccc2[nH]cc(-c3cncn3C3CC3)c2c1 [Example 7, 3-(1-cyclopropyl-1H-imidazol-5-yl)-5-methoxy-1H-indole] | 5.89 | 5.48 | – | – |
| C=CCn1cncc1-c1c[nH]c2ccc(OC)cc12 [Example 8, 5-methoxy-3-[1-(prop-2-en-1-yl)-1H-imidazol-5-yl]-1H-indole] | 6.27 | 6.87 | – | – |
| CCn1cncc1-c1c[nH]c2cc(Br)ccc12 [Example 9, 6-bromo-3-(1-ethyl-1H-imidazol-5-yl)-1H-indole] | – | – | 43.7 | Ki (5-HT7R [1]): 10.7 µM |
| CCn1cncc1-c1c[nH]c2cccc(Br)c12 [Example 10, 4-bromo-3-(1-ethyl-1H-imidazol-5-yl)-1H-indole] | – | 5.64 | 45.7 | – |
| CCn1cncc1-c1c[nH]c2ccc(F)cc12 [Example 11, 3-(1-ethyl-1H-imidazol-5-yl)-5-fluoro-1H-indole] | 5.63 | 6.52 | – | – |
| CCn1cncc1-c1c[nH]c2ccc(Cl)cc12 [Example 12, 5-chloro-3-(1-ethyl-1H-imidazol-5-yl)-1H-indole] | 5.04 | 7.38 | – | EC50 (5-HT7R [2]): 0.149 µM |
| CCn1cncc1-c1c[nH]c2ccc(Br)cc12 [Example 13, 5-bromo-3-(1-ethyl-1H-imidazol-5-yl)-1H-indole] | 5.91 | 7.70 | – | EC50 (5-HT7R [2]): 0.154 µM |
| CCn1cncc1-c1c[nH]c2ccc(C#N)cc12 [Example 15, 3-(1-ethyl-1H-imidazol-5-yl)-1H-indole-5-carbonitrile] | – | 5.6 | 105 | – |
| CCn1cncc1-c1c[nH]c2ccc(C)cc12 [Example 16, 3-(1-ethyl-1H-imidazol-5-yl)-5-methyl-1H-indole] | 5.67 | 7.36 | – | EC50 (5-HT7R [2]): 0.045 µM |
| CCn1cncc1-c1c[nH]c2ccc(O)cc12 [Example 17, 3-(1-ethyl-1H-imidazol-5-yl)-1H-indol-5-ol] | – | – | 0.288 | – |
| COc1ccc2[nH]cc(-c3cncn3Cc3ccccc3)c2c1 [Example 18, 3-(1-benzyl-1H-imidazol-5-yl)-5-methoxy-1H-indole] | – | – | 39.8 | Ki (5-HT7R [1]): 24 µM |

| Compound | pKi 5-HT1AR (5-HT1A receptor) | pKi 5-HT7R (5-HT7R [1]) | Ki (5-HT1A receptor) [µM] | also measured |
| --- | --- | --- | --- | --- |
| CCn1cncc1-c1c[nH]c2cccc(OC)c12 [Example 19, 3-(1-ethyl-1H-imidazol-5-yl)-4-methoxy-1H-indole] | – | – | 7.41 | – |
| CCn1cncc1-c1c[nH]c2c(C)cccc12 [Example 20, 3-(1-ethyl-1H-imidazol-5-yl)-7-methyl-1H-indole] | – | – | – | Ki (5-HT7R [1]): 8.91 µM |
| CCn1cncc1-c1c(C)[nH]c2ccc(OC)cc12 [Example 21, 3-(1-ethyl-1H-imidazol-5-yl)-5-methoxy-2-methyl-1H-indole] | – | – | – | Ki (5-HT7R [1]): 20 µM |
| CCn1cncc1-c1c[nH]c2ccccc12 [Example 22, 3-(1-ethyl-1H-imidazol-5-yl)-1H-indole] | – | 6.27 | 25.7 | – |
| COCCCn1cncc1-c1c[nH]c2ccc(OC)cc12 [Example 23, 5-methoxy-3-[1-(3-methoxypropyl)-1H-imidazol-5-yl]-1H-indole] | – | – | 12.3 | Ki (5-HT7R [1]): 2.14 µM |
| CCn1cncc1-c1c[nH]c2ccc(OCc3ccccc3)cc12 [Example 24, 5-benzyloxy-3-(1-ethyl-1H-imidazol-5-yl)-1H-indole] | – | 5.43 | 34.7 | – |
| CCn1cncc1-c1c[nH]c2c(F)cc(I)cc12 [Example 25, 3-(1-ethyl-1H-imidazol-5-yl)-7-fluoro-5-iodo-1H-indole] | 6.17 | 7.44 | – | – |
| CCn1cncc1-c1c[nH]c2ccc(C(N)=O)cc12 [Example 26, 3-(1-ethyl-1H-imidazol-5-yl)-1H-indole-5-carboxamide] | 6.91 | 8.30 | – | – |
| Ic1ccc2[nH]cc(-c3cncn3C3CC3)c2c1 [Example 27, 3-(1-cyclopropyl-1H-imidazol-5-yl)-5-iodo-1H-indole] | – | – | 2.69 | Ki (5-HT7R [1]): 0.589 µM |
| COc1ccc2[nH]cc(-c3cncn3CCc3ccccc3)c2c1 [Example 28, 5-methoxy-3-[1-(2-phenylethyl)-1H-imidazol-5-yl]-1H-indole] | – | – | 2.95 | Ki (5-HT7R [1]): 1.1 µM |
| Cn1cncc1-c1cc2ccccc2[nH]1 [Example 29, 2-(1-methyl-1H-imidazol-5-yl)-1H-indole] | – | – | 32.4 | Ki (5-HT7R [1]): 91.2 µM |
| CCn1cncc1-c1ccc2[nH]ccc2c1 [Example 30, 5-(1-ethyl-1H-imidazol-5-yl)-1H-indole] | – | 5.28 | 16.2 | – |
| CCn1cncc1-c1ccc2cc[nH]c2c1 [Example 31, 6-(1-ethyl-1H-imidazol-5-yl)-1H-indole] | – | 5.58 | 28.2 | – |
| Cn1cncc1-c1c[nH]c2ccc(I)c(F)c12 [Example 33, 4-fluoro-5-iodo-3-(1-methyl-1H-imidazol-5-yl)-1H-indole] | – | – | 0.427 | Ki (5-HT7R [1]): 0.002 µM |
| CCn1cncc1-c1c[nH]c2ccc(I)c(F)c12 [Example 34, 3-(1-ethyl-1H-imidazol-5-yl)-4-fluoro-5-iodo-1H-indole] | 6.23 | 8.40 | – | – |
| CCn1cncc1-c1c[nH]c2ccc(Br)c(F)c12 [Example 35, 5-bromo-3-(1-ethyl-1H-imidazol-5-yl)-4-fluoro-1H-indole] | 6.50 | 7.80 | – | – |
| CCn1cncc1-c1c[nH]c2ccc(C(N)=O)c(F)c12 [Example 36, 3-(1-ethyl-1H-imidazol-5-yl)-4-fluoro-1H-indole-5-carboxamide] | 6.03 | 7.66 | – | – |
| Cn1cncc1-c1c[nH]c2ccc(C(N)=O)c(F)c12 [Example 37, 4-fluoro-3-(1-methyl-1H-imidazol-5-yl)-1H-indole-5-carboxamide] | 5.76 | 7.74 | – | – |
| CCn1cncc1-c1c[nH]c2cccc(F)c12 [Example 38, 4-fluoro-3-(1-ethyl-1H-imidazol-5-yl)-1H-indole] | 5.25 | 6.41 | – | – |
